Measurements from paper PMC6981064 (Biochemical and biophysical research communications, 2019).

Legend:
[1] = molecular target: T1, glutamate-oxaloacetate transaminase 1 (GOT1) (Homo sapiens, UniProt P17174); assay: MDH1-coupled enzyme assay, […] h pre-incubation; type: biochemical
[2] = molecular target: T1, glutamate-oxaloacetate transaminase 1 (GOT1); assay: MDH1-coupled enzyme assay, percent inhibition; type: biochemical

T1 sequence (P17174 2-413): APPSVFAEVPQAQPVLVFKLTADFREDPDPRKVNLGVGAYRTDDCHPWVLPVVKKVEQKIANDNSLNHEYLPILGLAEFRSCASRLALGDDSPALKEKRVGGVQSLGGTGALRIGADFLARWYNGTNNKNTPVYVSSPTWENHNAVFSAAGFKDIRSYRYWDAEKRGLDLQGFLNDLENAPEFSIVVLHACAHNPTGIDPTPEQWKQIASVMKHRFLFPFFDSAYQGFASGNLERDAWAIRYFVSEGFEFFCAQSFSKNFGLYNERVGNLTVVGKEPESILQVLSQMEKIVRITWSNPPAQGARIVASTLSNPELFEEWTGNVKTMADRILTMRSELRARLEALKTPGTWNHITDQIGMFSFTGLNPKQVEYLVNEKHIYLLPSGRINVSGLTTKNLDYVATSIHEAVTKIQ

Row | Compound | IC50 [1] [µM] | MDH1-coupled enzyme assay, percent inhibition [2]
1 | N[C@H]1Cc2ccccc2N(O)C1=O [PF-04859989] | 8 | –
2 | NOCC(=O)O [amino-oxyacetate] | – | The pan-transaminase inhibitor amino-oxyacetate (AOA) was used as a positive control
